Among the data in US10179790B2 (THOMAS HELLEDAYS STIFTELSE FOR MEDICINSK FORSKNING, priority 2014, dated 2019) are IC50 values, retold here.

The target in one assay is MTH1 (Homo sapiens, UniProt P36639). Briefly: MTH1 enzymatic assay and IC50 value determination (malachite green, 96- and 384-well format). As to conditions: hydrolysis of dGTP (100 μM), MTH1 6 nM, pyrophosphatase-coupled malachite green, 15 minutes at 22° C. It is filed as biochemical. In short, it runs like this: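 MTH1 (6 nM) hydrolysed dGTP (100 μM) for 15 min at 22 °C in Tris-acetate buffer with Mg2+, DTT, Tween 20 and excess pyrophosphatase, 1% DMSO. Pi detected with malachite green at 630 nm. IC50 from nonlinear 4-parameter fit of 11–12-point dilution series.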

A further assay deals with cancer cell. In words: Cell viability assay (resazurin). As to conditions: 72 h; 3 days with compound, resazurin fluorescence; cell line not named. It counts as cell-based. The method, boiled down: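 Cells in DMEM GlutaMAX or line-appropriate medium are exposed to compound for 3 days at 37 °C, 5% CO2. Viability is read as resazurin fluorescence (Ex544/Em590) after 2 h incubation. In the 384-well format, cells are seeded onto 11 pre-dispensed concentrations (final DMSO <1%) and read after 3 h resazurin.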

Bounds are passed on as bounds.

By IC50 is commonly meant the point on the concentration scale where inhibition reaches its midpoint. Consider `Cc1c(Cl)cccc1-c1cc(NCCc2ccc(C(=O)OCCS(C)(=O)=O)cc2)nc(N)n1` [Example 186, 2-methylsulfonylethyl 4-[2-[[2-amino-6-(3-chloro-2-methyl-phenyl)pyrimidin-4-yl]amino]ethyl]benzoate], for which the values for the IC50 against MTH1 and with cancer cell were under 200 nM and under 500 nM, respectively.
For `Cc1c(Cl)cccc1-c1cc(NCCc2ccc(S(=O)(=O)N3CCOCC3)cc2)nc(N)n1` [Example 207, 6-(3-chloro-2-methylphenyl)-N4-{2-[4-(morpholine-4-sulfonyl)phenyl]ethyl}pyrimidine-2,4-diamine] the same measures were under 200 nM and under 500 nM.
In the same order, the values of `Cc1c(Cl)cccc1-c1cc(NCCc2ccc(C(=O)N3CCCC3)cc2)nc(N)n1` [Example 90, [4-[2-[[2-amino-6-(3-chloro-2-methyl-phenyl)pyrimidin-4-yl]amino]ethyl]phenyl]-pyrrolidin-1-yl-methanone] are under 200 nM and under 500 nM.
In the same order, the values of `Cc1c(Cl)cc(Cl)cc1-c1cc(NCCc2ccc(C(=O)N3CCOCC3)cc2)nc(N)n1` [Example 109, [4-[2-[[2-amino-6-(3,5-dichloro-2-methyl-phenyl)pyrimidin-4-yl]amino]ethyl]phenyl]-morpholino-methanone] are under 200 nM and under 500 nM.
Turning to `CNC(=O)c1ccc(CCNc2cc(-c3cccc(Cl)c3C)nc(N)n2)cc1` [Example 89, 4-[2-[[2-amino-6-(3-chloro-2-methyl-phenyl)pyrimidin-4-yl]amino]ethyl]-N-methyl-benzamide], the IC50 was under 200 nM at MTH1 and under 500 nM in the assay with cancer cell.
For `Cc1c(Cl)cccc1-c1cc(NCCc2ccc(NC(=O)OC(C)C)cc2)nc(N)n1` [Example 119, isopropyl N-[4-[2-[[2-amino-6-(3-chloro-2-methyl-phenyl)pyrimidin-4-yl]amino]ethyl]phenyl]carbamate] the same measures were under 200 nM and under 500 nM.
In the same order, the values of `COCCNS(=O)(=O)c1ccc(CCNc2cc(-c3cccc(Cl)c3C)nc(N)n2)cc1` [Example 208, 4-(2-{[2-amino-6-(3-chloro-2-methylphenyl)pyrimidin-4-yl]amino}ethyl)-N-(2-methoxyethyl)benzene-1-sulfonamide] are under 200 nM and under 500 nM.
For `Cc1cccc(-c2cc(NCCNc3ccc(C(N)=O)cc3)nc(N)n2)c1C` [Example 30, 4-[(2-{[2-amino-6-(2,3-dimethylphenyl)pyrimidin-4-yl]amino}ethyl)amino]benzamide] the same measures were under 200 nM and under 500 nM.
As to `Cc1c(Cl)cccc1-c1cc(NCCc2ccc(C(=O)OCC(O)CO)cc2)nc(N)n1` (stereo not shown) [Example 187, 2,3-dihydroxypropyl 4-[2-[[2-amino-6-(3-chloro-2-methyl-phenyl)pyrimidin-4-yl]amino]ethyl]benzoate], the values for the IC50 at MTH1 and in the assay on cancer cell were under 200 nM and under 500 nM, respectively.
For `Cc1c(Cl)cccc1-c1cc(NCCc2cccc(NC(=O)C3CC3)c2)nc(N)n1` [Example 84, N-[3-(2-{[2-amino-6-(3-chloro-2-methylphenyl)pyrimidin-4-yl]amino}ethyl)phenyl]cyclopropanecarboxamide] the same measures were under 200 nM and under 500 nM.
In the same order, the values of `Cc1c(Cl)cccc1-c1cc(NCCc2ccc(O)c(C(N)=O)c2)nc(N)n1` [Example 173, 5-[2-[[2-amino-6-(3-chloro-2-methyl-phenyl)pyrimidin-4-yl]amino]ethyl]-2-hydroxy-benzamide] are under 200 nM and under 500 nM.
For `CC#CCOC(=O)Nc1ccc(CCNc2cc(-c3cccc(Cl)c3C)nc(N)n2)cc1` [Example 123, but-2-ynyl N-[4-[2-[[2-amino-6-(3-chloro-2-methyl-phenyl)pyrimidin-4-yl]amino]ethyl]phenyl]carbamate] the same measures were under 200 nM and under 500 nM.
As for `Cc1c(Cl)cccc1-c1cc(NCCOc2ccc(C(N)=O)cc2)nc(N)n1` [Example 201], the IC50 against MTH1 is under 200 nM; in the assay on cancer cell, under 500 nM.
For `Cc1c(Cl)cccc1-c1cc(NCCc2ccc(NC(=O)OCC(C)C)cc2)nc(N)n1` [Example 120, isobutyl N-[4-[2-[[2-amino-6-(3-chloro-2-methyl-phenyl)pyrimidin-4-yl]amino]ethyl]phenyl]carbamate] the same measures were under 200 nM and under 500 nM.
Consider `Cc1c(Cl)cccc1-c1cc(NCCc2ccc(S(=O)(=O)NC3CCOCC3)cc2)nc(N)n1` [Example 210, 4-(2-{[2-amino-6-(3-chloro-2-methylphenyl)pyrimidin-4-yl]amino}ethyl)-N-(oxan-4-yl)benzene-1-sulfonamide], for which the IC50 at MTH1 was under 200 nM; in the assay on cancer cell, under 500 nM.
For `Cc1cccc(-c2cc(NCCNc3ccc(N)cc3F)nc(N)n2)c1C` [Example 128, 1-N-(2-{[2-amino-6-(2,3-dimethylphenyl)pyrimidin-4-yl]amino}ethyl)-2-fluorobenzene-1,4-diamine], the results for the half-maximal inhibitory concentration (IC50) at MTH1 and with cancer cell were under 200 nM and under 500 nM, respectively.
For `Cc1c(Cl)cccc1-c1cc(NCCc2ccc(C(=O)N3CCOCC3)cc2)nc(N)n1` [Example 108, [4-[2-[[2-amino-6-(3-chloro-2-methyl-phenyl)pyrimidin-4-yl]amino]ethyl]phenyl]-morpholino-methanone] the same measures were under 200 nM and under 500 nM.
As for `Cc1c(Cl)cccc1-c1cc(NCCc2ccc(S(C)(=O)=O)c(F)c2)nc(N)n1` [Example 172, 6-(3-chloro-2-methyl-phenyl)-N4-[2-(3-fluoro-4-methylsulfonyl-phenyl)ethyl]pyrimidine-2,4-diamine], the figures for the IC50 against MTH1 and with cancer cell were under 200 nM and under 500 nM, respectively.
For `Cc1cccc(-c2cc(NCCNc3ccccc3C(N)=O)nc(N)n2)c1C` [Example 24, 2-[(2-{[2-amino-6-(2,3-dimethylphenyl)pyrimidin-4-yl]amino}ethyl)amino]benzamide] the same measures were under 200 nM and under 500 nM.
In the same order, the values of `Cc1c(Cl)cccc1-c1cc(NCCOc2nccc(C(N)=O)n2)nc(N)n1` [Example 57, 2-(2-{[2-amino-6-(3-chloro-2-methylphenyl)pyrimidin-4-yl]amino}ethoxy)pyrimidine-4-carboxamide] are under 200 nM and under 500 nM.
In the same order, the values of `Cc1c(Cl)cccc1-c1cc(NCCCOc2nccc(C(N)=O)n2)nc(N)n1` [Example 205, 2-(3-{[2-amino-6-(3-chloro-2-methylphenyl)pyrimidin-4-yl]amino}propoxy)pyrimidine-4-carboxamide] are under 200 nM and under 500 nM.
Regarding `Cc1nc2ccc(NCCCNc3cc(-c4cccc(Cl)c4C)nc(N)n3)cc2s1` [Example 145, 6-(3-chloro-2-methyl-phenyl)-N4-[3-[(2-methyl-1,3-benzothiazol-6-yl)amino]propyl]pyrimidine-2,4-diamine], the half-inhibitory concentration (IC50) at MTH1 is under 200 nM; in the assay on cancer cell it was under 500 nM.
For `Cc1c(Cl)cccc1-c1cc(NCCSCc2ccc(S(C)(=O)=O)cc2)nc(N)n1` [Example 176, 6-(3-chloro-2-methyl-phenyl)-N4-[2-[(4-methylsulfonylphenyl)methylsulfanyl]ethyl]pyrimidine-2,4-diamine] the same measures were under 200 nM and under 500 nM.
